Measurements taken from ChEMBL document CHEMBL4334471, “Discovery of 1,8-disubstituted-[1,2,3]triazolo[4,5-c]quinoline derivatives as a new class of Hippo signaling pathway inhibitors” (Bioorg Med Chem Lett, 2019).

How the values were obtained:
[1] = target: Activin receptor type-1 (Homo sapiens) (UniProt Q04771); assay: Inhibition of human ALK2 (147 to end residues) assessed as residual activity at 10 uM using casein as substrate incubated for 40 mins in presence of [gamma-33ATP] by scintillation counting based radiometry assay relative to control
Homo sapiens [2] = species on record: Homo sapiens; assay: Inhibition of recombinant full length human Aurora A I31F mutant assessed as residual activity at 10 uM using LRRASLG as substrate incubated for 40 mins in presence of [gamma-33ATP] by scintillation counting based radiometry assay relative to control
[3] = target: Cytoplasmic tyrosine-protein kinase BMX (Homo sapiens) (UniProt P51813); assay: Inhibition of recombinant full length human BMX assessed as residual activity at 10 uM using poly(Glu, Tyr) 4:1 as substrate incubated for 40 mins in presence of [gamma-33ATP] by scintillation counting based radiometry assay relative to control
[4] = target: CDK17/Cyclin-Y (Homo sapiens) (UniProt Q00537+Q8ND76); assay: Inhibition of recombinant full length human CDK17/cyclinY assessed as residual activity at 10 uM using PKSPKARKKL as substrate incubated for 40 mins in presence of [gamma-33ATP] by scintillation counting based radiometry assay relative to control; assay type: protein-complex assay
CDK17/Cyclin-Y (Homo sapiens), sequence (Q00537 whole entry, canonical isoform): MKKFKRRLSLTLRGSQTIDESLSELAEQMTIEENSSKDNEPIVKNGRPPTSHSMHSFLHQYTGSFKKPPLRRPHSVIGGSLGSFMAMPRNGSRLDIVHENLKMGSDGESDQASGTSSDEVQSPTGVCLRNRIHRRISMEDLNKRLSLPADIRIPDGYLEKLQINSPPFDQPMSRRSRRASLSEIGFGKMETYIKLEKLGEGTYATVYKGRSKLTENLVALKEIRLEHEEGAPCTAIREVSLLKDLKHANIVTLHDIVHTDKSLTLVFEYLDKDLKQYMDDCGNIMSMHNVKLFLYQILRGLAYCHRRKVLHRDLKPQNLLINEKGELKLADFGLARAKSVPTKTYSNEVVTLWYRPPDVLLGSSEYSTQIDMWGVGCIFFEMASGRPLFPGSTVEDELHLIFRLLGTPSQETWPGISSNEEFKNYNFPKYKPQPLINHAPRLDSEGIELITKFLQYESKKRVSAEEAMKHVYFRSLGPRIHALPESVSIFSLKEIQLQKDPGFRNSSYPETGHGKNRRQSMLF
CDK17/Cyclin-Y (Homo sapiens), sequence (Q8ND76 2-341 partner limits assumed): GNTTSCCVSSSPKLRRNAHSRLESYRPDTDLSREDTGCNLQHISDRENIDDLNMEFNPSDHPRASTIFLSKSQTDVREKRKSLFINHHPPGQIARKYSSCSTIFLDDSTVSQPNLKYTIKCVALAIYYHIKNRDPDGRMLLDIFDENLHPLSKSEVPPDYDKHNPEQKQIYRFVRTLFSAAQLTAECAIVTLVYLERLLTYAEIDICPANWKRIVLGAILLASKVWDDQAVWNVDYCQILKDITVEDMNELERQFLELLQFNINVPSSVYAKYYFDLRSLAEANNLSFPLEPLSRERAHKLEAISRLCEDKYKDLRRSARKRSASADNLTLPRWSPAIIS

[5] = target: Casein kinase I isoform epsilon (Homo sapiens) (UniProt P49674); assay: Inhibition of recombinant human CK1epsilon assessed as residual activity at 10 uM using KRRRALS(p)VASLPGL as substrate incubated for 120 mins in presence of [gamma-33ATP] by scintillation counting based radiometry assay relative to control
[6] = target: Casein kinase I isoform delta (Homo sapiens) (UniProt P48730); assay: Inhibition of recombinant human CK1delta (1 to 294 residues) assessed as residual activity at 10 uM using KRRRALS(p)VASLPGL as substrate incubated for 40 mins in presence of [gamma-33ATP] by scintillation counting based radiometry assay relative to control
Casein kinase I isoform delta (Homo sapiens), sequence (P48730 whole entry, looked up, the tested form may be a part, canonical isoform): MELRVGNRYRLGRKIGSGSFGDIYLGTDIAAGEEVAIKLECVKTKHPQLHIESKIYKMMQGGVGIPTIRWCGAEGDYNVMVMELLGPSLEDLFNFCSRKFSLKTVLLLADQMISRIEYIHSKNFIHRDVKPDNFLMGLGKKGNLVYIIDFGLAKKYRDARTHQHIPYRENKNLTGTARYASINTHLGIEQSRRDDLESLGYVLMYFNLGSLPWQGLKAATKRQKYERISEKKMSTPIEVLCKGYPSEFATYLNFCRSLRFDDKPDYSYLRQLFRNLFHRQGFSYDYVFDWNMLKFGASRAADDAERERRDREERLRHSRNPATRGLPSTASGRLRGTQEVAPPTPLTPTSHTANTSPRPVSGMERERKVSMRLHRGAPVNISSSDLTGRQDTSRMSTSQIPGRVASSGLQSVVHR

[7] = target: Ephrin type-B receptor 4 (Homo sapiens) (UniProt P54760); assay: Inhibition of recombinant human EphB4 (561 to end residues) assessed as residual activity at 10 uM using poly(Glu, Tyr) 4:1 as substrate at 40 mins in presence of [gamma-33ATP] by scintillation counting based radiometry assay relative to control
[8] = target: G protein-coupled receptor kinase 6 (Homo sapiens) (UniProt P43250); assay: Inhibition of recombinant full length human GRK6 assessed as residual activity at 10 uM using casein as substrate at 40 mins in presence of [gamma-33ATP] by scintillation counting based radiometry assay relative to control
[9] = target: Homeodomain-interacting protein kinase 1 (Homo sapiens) (UniProt Q86Z02); assay: Inhibition of human HIPK1 (158 to 555 residues) assessed as residual activity at 10 uM using myelin basic protein as substrate after 40 mins by [gamma-33ATP] radiometric assay relative to control
[10] = target: Serine/threonine-protein kinase/endoribonuclease IRE1 (Homo sapiens) (UniProt O75460); assay: Inhibition of human IRE1 (465 to end residues) assessed as residual activity at 10 uM using myelin basic protein as substrate after 40 mins by [gamma-33ATP] radiometric assay relative to control
Serine/threonine-protein kinase/endoribonuclease IRE1 (Homo sapiens), sequence (O75460 19-977 limits assumed): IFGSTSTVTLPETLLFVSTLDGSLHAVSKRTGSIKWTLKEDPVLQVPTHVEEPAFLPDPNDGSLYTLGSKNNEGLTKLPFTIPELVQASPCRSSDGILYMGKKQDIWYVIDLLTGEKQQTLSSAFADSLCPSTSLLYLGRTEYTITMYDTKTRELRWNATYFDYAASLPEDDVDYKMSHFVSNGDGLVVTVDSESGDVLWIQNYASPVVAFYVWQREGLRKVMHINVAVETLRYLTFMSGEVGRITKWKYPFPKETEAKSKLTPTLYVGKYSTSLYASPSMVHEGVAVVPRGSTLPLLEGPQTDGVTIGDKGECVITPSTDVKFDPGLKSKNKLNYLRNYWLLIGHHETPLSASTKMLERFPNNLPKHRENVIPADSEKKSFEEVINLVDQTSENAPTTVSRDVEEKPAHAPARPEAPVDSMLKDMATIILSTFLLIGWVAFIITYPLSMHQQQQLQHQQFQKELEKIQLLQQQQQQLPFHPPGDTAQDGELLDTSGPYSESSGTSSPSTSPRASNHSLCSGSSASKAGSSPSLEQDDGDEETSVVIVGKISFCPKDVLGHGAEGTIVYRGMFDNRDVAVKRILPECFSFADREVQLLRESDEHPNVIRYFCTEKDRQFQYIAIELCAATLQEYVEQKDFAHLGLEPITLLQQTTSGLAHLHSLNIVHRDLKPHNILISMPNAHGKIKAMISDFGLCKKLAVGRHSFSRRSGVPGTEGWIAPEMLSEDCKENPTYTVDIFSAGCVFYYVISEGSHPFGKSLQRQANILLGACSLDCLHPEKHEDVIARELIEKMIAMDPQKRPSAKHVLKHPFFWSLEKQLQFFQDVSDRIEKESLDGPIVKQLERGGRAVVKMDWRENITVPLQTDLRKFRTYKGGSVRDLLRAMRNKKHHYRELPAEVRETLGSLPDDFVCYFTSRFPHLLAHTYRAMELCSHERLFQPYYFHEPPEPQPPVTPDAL

[11] = target: Tyrosine-protein kinase JAK2 (Homo sapiens) (UniProt O60674); assay: Inhibition of human JAK2 (808 to end residues) assessed as residual activity at 10 uM using KTFCGTPEYLAPEVRREPRILSEEEQEMFRDFDYIADWC as substrate after 40 mins by [gamma-33ATP] radiometric assay relative to control
[12] = target: Mitogen-activated protein kinase 8 (Homo sapiens) (UniProt P45983); assay: Inhibition of human JNK1alpha1 assessed as residual activity at 10 uM using ATF2 as substrate after 40 mins by [gamma-33ATP] radiometric assay relative to control
[13] = target: Mitogen-activated protein kinase kinase kinase kinase 5 (Homo sapiens) (UniProt Q9Y4K4); assay: Inhibition of recombinant human MAP4K5 assessed as residual activity at 10 uM using myelin basic protein as substrate incubated for 40 mins in presence of [gamma-33ATP by scintillation counting based radiometry assay relative to control
Homo sapiens [14] = species on record: Homo sapiens; assay: Inhibition of recombinant human MAPKAPK2 A399G mutant (46 to end residues) assessed as residual activity at 10 uM using KKLNRTLSVA as substrate incubated for 40 mins in presence of [gamma-33ATP by scintillation counting based radiometry assay relative to control
[15] = target: Maternal embryonic leucine zipper kinase (Homo sapiens) (UniProt Q14680); assay: Inhibition of recombinant human MELK (1 to 340 residues) assessed as residual activity at 10 uM using KKLNRTLSFAEPG as substrate incubated for 40 mins in presence of [gamma-33ATP by scintillation counting based radiometry assay relative to control
[16] = tested on: Serine/threonine-protein kinase D1 (Homo sapiens), Q15139 [UNDEFINED MUTATION]; assay: Inhibition of recombinant full-length human PKCmu R135A mutant assessed as residual activity at 10 uM using KKLNRTLSVA as substrate incubated for 40 mins in presence of [gamma33P]ATP by scintillation counting based radiometry assay relative to control
[17] = target: cGMP-dependent protein kinase 1 (Homo sapiens) (UniProt Q13976); assay: Inhibition of recombinant full-length human PKG1alpha assessed as residual activity at 10 uM using RRRLSFAEPG as substrate incubated for 40 mins in presence of [gamma33P]ATP by scintillation counting based radiometry assay relative to control
cGMP-dependent protein kinase 1 (Homo sapiens), sequence (Q13976 whole entry, the tested form may be a part): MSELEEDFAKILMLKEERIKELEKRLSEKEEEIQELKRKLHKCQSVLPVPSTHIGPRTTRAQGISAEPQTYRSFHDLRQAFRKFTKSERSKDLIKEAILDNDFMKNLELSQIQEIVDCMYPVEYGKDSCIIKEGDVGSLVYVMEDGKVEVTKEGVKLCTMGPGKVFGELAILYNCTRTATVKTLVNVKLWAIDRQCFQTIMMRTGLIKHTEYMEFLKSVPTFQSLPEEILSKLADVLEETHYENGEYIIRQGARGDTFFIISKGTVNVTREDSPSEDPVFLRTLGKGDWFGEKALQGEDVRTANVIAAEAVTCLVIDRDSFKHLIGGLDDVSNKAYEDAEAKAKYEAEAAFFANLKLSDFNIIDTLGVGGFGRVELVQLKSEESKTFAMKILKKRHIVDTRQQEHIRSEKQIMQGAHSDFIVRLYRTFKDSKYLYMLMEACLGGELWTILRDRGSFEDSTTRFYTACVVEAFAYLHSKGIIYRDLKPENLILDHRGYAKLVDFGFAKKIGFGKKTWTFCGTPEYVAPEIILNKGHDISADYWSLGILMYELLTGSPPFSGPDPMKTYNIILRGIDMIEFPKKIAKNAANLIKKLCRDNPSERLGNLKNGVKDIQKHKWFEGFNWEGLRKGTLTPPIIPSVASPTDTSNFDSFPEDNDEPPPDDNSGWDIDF

[18] = target: Receptor-interacting serine/threonine-protein kinase 1 (Homo sapiens) (UniProt Q13546); assay: Inhibition of recombinant human RIPK1 (8 to 322 residues) assessed as residual activity at 10 uM using myelin basic protein as substrate incubated for 40 mins in presence of [gamma33P]ATP by scintillation counting based radiometry assay relative to control
Receptor-interacting serine/threonine-protein kinase 1 (Homo sapiens), sequence (Q13546 whole entry, the tested form may be a part): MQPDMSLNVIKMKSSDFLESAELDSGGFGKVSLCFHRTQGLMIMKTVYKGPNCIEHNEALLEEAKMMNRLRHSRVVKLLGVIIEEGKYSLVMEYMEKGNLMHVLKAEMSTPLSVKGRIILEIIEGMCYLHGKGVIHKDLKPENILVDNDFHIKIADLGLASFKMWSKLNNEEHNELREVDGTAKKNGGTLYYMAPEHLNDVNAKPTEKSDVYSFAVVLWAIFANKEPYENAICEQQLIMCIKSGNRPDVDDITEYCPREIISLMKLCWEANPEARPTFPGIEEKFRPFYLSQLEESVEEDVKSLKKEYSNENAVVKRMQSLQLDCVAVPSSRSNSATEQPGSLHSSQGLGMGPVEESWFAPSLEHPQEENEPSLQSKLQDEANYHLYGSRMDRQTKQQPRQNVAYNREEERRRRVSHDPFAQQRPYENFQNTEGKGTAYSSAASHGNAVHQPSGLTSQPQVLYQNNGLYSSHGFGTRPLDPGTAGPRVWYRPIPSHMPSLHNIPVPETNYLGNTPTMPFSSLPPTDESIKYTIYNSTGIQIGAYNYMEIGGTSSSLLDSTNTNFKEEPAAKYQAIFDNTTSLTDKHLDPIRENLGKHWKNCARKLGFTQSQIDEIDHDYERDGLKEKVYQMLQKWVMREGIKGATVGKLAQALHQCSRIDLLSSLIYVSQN

Homo sapiens [19] = species on record: Homo sapiens; assay: Inhibition of recombinant human Ros V2262A mutant (1883 to end residues) assessed as residual activity at 10 uM using KKKSPGEYVNIEFG as substrate incubated for 40 mins in presence of [gamma33P]ATP by scintillation counting based radiometry assay relative to control
[20] = tested on: Proto-oncogene tyrosine-protein kinase Src (Homo sapiens), P12931 [T341M]; assay: Inhibition of recombinant full length human SRC T341M mutant assessed as residual activity at 10 uM using GGEEEEYFELVKK as substrate incubated for 40 mins in presence of [gamma33P]ATP by scintillation counting based radiometry assay relative to control
[21] = target: Serine/threonine-protein kinase WNK4 (Homo sapiens) (UniProt Q96J92); assay: Inhibition of recombinant human WNK4 (A31 to D461 residues) assessed as residual activity at 10 uM using myelin basic protein as substrate incubated for 40 mins in presence of [gamma33P]ATP by scintillation counting based radiometry assay relative to control
Serine/threonine-protein kinase WNK4 (Homo sapiens), sequence (Q96J92 whole entry, the tested form may be a part): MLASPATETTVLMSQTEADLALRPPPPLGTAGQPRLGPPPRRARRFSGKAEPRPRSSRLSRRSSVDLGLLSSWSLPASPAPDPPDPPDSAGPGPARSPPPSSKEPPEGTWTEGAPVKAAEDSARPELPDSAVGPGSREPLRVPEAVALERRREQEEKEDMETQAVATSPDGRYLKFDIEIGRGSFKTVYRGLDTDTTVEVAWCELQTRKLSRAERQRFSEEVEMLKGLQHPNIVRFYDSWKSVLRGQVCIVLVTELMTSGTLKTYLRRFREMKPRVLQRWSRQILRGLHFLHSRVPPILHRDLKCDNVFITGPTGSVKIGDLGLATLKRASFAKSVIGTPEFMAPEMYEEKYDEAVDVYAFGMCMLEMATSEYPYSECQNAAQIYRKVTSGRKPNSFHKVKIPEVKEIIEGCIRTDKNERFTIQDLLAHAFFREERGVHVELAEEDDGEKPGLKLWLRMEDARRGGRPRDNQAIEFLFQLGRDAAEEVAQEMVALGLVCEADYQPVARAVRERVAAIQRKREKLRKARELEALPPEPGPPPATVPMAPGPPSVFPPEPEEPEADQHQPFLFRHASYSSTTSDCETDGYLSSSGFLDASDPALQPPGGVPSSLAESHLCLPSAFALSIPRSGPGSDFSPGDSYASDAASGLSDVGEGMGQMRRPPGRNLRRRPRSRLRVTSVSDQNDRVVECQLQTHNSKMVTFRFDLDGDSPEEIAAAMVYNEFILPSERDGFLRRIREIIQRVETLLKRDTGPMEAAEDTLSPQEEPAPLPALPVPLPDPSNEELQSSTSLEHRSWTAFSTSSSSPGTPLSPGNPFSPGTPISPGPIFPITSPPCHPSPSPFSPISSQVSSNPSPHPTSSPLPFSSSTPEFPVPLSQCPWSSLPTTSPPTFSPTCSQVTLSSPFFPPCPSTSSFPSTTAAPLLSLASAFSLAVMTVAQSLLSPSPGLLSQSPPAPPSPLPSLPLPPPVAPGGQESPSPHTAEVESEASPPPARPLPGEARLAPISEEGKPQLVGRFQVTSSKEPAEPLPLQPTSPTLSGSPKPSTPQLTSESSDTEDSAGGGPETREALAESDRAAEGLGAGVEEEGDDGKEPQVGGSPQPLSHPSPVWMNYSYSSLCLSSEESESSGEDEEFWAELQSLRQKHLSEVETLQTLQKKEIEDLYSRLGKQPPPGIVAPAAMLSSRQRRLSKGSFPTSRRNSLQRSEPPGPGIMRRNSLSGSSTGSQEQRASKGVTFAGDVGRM

[22] = target: Tyrosine-protein kinase Blk (Mus musculus) (UniProt P16277); assay: Inhibition of recombinant full length mouse BLK assessed as residual activity at 10 uM using poly(Glu, Tyr) 4:1 as substrate incubated for 40 mins in presence of [gamma-33ATP] by scintillation counting based radiometry assay relative to control

**Q.** With `C[C@@H](c1ccccc1)n1nnc2cnc3ccc(-c4cnc5[nH]ccc5c4)cc3c21` as the molecule, how does the Activity [1] read?
**A.** 88%

**Q.** And the Activity (Homo sapiens [2])?
**A.** 69%

**Q.** And the Activity [3]?
**A.** 44%

**Q.** What about the Activity [4] of the same molecule?
**A.** 85%

**Q.** And the Activity [5]?
**A.** 32%

**Q.** And the Activity [6]?
**A.** 23%

**Q.** What about the Activity [7] of the same molecule?
**A.** 71%

**Q.** And the Activity [8]?
**A.** 96%

**Q.** What about the Activity [9] of the same molecule?
**A.** 78%

**Q.** What about the Activity [10] of the same molecule?
**A.** 86%

**Q.** And the Activity [11]?
**A.** 43%

**Q.** And the Activity [12]?
**A.** 105%

**Q.** And the Activity [13]?
**A.** 62%

**Q.** What about the Activity (Homo sapiens [14]) of the same molecule?
**A.** 67%

**Q.** What about the Activity [15] of the same molecule?
**A.** 25%

**Q.** And the Activity [16]?
**A.** 93%

**Q.** What about the Activity [17] of the same molecule?
**A.** 70%

**Q.** And the Activity [18]?
**A.** 98%

**Q.** What about the Activity (Homo sapiens [19]) of the same molecule?
**A.** 102%

**Q.** And the Activity [20]?
**A.** 74%

**Q.** And the Activity [21]?
**A.** 96%

**Q.** What about the Activity [22] of the same molecule?
**A.** 12%
